According to patent US10202353B2, “Therapeutic compounds” (Gilead Sciences, Inc., priority 2014, dated 2019):

What was measured:
HIV-IIIb = assay: Test A: Antiviral assay in MT4 Cells; type: cell-based, HIV-1; conditions: Human immunodeficiency virus 1, 120 h; 2 μM drug concentration; MT4 cells infected with HIV-IIIb, 5 days; calculated from dose response curve; values normalized to 100% where greater than 100; read-out: % Inhibition at 2 μM (percent inhibition of virus-induced cell killing)
Procedure: (§1) For the antiviral assay, 40 μL of a concentration required to achieve a final effective 1× test concentration of 3-fold serially diluted compound in culture medium with 10% FBS was added to each well of a 384-well plate (10 concentrations) in quadruplicate. MT4 cells were next mixed with HIV-IIIb at an m.o.i of 0.003 for 1 hour, after which time 35 μL of virus/cell mixture (2000 cells) was immediately added to each well containing 40 μL of diluted compound. The plates were then incubated at 37° C. for 5 days. After 5 days of incubation, 25 μl of 2× concentrated CellTiter-Glo™ Reagent (catalog # G7571, Promega Biosciences, Inc., Madison, Wis.) was added to each well containing MT-4 cells. Cell lysis was carried out by incubating at room temperature for 10 min and then chemiluminescence was read. EC50 values were calculated as the compound concentration that caused a 50% decrease in luminescence signal, a measure of HIV-1 replication. Percent inhibition of virus-induced cell killing calculated from the dose response curve at 2 μM drug concentration is shown in the table below.

[1] = Test B: Cytotoxicity Assay; type: cell-based; conditions: human, uninfected MT4 cells, same protocol as Test A
Procedure: as §1, with “below. Compound cytotoxicity and the corresponding CC50 values was determined using the same protocol as described in the antiviral assay (Test A) except that uninfected cells were used.” for “below.”

Row | Structure (SMILES) | inhibition at 2 µM (HIV-IIIb) [%] | CC50 at 5 days [1] [µM]
1 | COc1ccc(N(C)C(=O)[C@H](Cc2cc(F)cc(F)c2)NC(=O)Cn2nc(C(F)(F)F)c3c2CCCC3)cc1 [Compound 4, (S)-3-(3,5-difluorophenyl)-N-(4-methoxyphenyl)-N-methyl-2-(2-(3-(trifluoromethyl)-4,5,6,7-tetrahydro-1H-indazol-1-yl)acetamido)propanamide] | 100 | 12.5
2 | CN(C(=O)[C@H](Cc1ccccc1)NC(=O)Cn1nc(C(F)(F)F)c2c1CCCC2)c1ccc2ccccc2c1 [Compound 3, (S)—N-methyl-N-(naphthalen-2-yl)-3-phenyl-2-(2-(3-(trifluoromethyl)-4,5,6,7-tetrahydro-1H-indazol-1-yl)acetamido)propanamide] | 79 | 11.1
3 | CN(C(=O)[C@H](Cc1ccccc1)NC(=O)Cn1nc(C(F)(F)F)c2c1CCCCC2)c1ccccc1 [Compound 13] | 87 | 22.2
4 | CN(C(=O)[C@H](Cc1csc2ccccc12)NC(=O)Cn1nc(C(F)(F)F)c2c1CCCC2)c1ccccc1 [Compound 10, (S)-3-(benzo[b]thiophen-3-yl)-N-methyl-N-phenyl-2-(2-(3-(trifluoromethyl)-4,5,6,7-tetrahydro-1H-indazol-1-yl)acetamido)propanamide] | 2 | 10.5
5 | COc1ccc(N(C)C(=O)[C@H](Cc2cc(F)cc(F)c2)NC(=O)Cn2nc(C(F)(F)F)c3c2CC(C)CC3)cc1 (stereo partly drawn) [Compound 25, (2S)-3-(3,5-difluorophenyl)-N-(4-methoxyphenyl)-N-methyl-2-(2-(6-methyl-3-(trifluoromethyl)-4,5,6,7-tetrahydro-1H-indazol-1-yl)acetamido)propanamide] | 100 | 11.1
6 | COc1ccc(N(C)C(=O)[C@H](Cc2cc(F)cc(F)c2)NC(=O)Cn2nc(C(F)(F)F)c3c2C(C)CCC3)cc1 (stereo partly drawn) [Compound 26, (2S)-3-(3,5-difluorophenyl)-N-(4-methoxyphenyl)-N-methyl-2-(2-(7-methyl-3-(trifluoromethyl)-4,5,6,7-tetrahydro-1H-indazol-1-yl)acetamido)propanamide] | 100 | 9.82
7 | CN(C(=O)[C@H](Cc1cc(F)cc(F)c1)NC(=O)Cn1nc(C(F)(F)F)c2c1C(F)(F)C1CC21)c1ccc2c(c1)CNC2=O (stereo partly drawn) [Compound 34, (2S)-2-(2-(5,5-difluoro-3-(trifluoromethyl)-3b,4,4a,5-tetrahydro-1H-cyclopropa[3,4]cyclopenta[1,2-c]pyrazol-1-yl)acetamido)-3-(3,5-difluorophenyl)-N-methyl-N-(1-oxoisoindolin-5-yl)propanamide] | 97 | > 53
